The values that follow come from ChEMBL document CHEMBL1123222, “Inactivation of gamma-aminobutyric acid aminotransferase by (S,E)-4-amino-5-fluoropent-2-enoic acid and effect on the enzyme of (E)-3-(1-aminocyclopropyl)-2-propenoic acid” (J Med Chem, 1986).

Series [1] is described as follows: Michaelis-Menten constant was determined. The series is classed as ADME.
Series [2] is described as follows: Maximal rate constant was determined. The series is classed as ADME.
Series [3] has as its target 4-aminobutyrate aminotransferase, mitochondrial (Sus scrofa) (UniProt P80147). The series can be described thus: Compound was tested for inactivation of Gamma-amino-N-butyrate transaminase in pig brain at pH of 6.5.
Series [4] concerns the target T1, 4-aminobutyrate aminotransferase, mitochondrial (Sus scrofa, UniProt P80147). The series can be described thus: Compound was tested for inhibitory constant of Gamma-amino-N-butyrate transaminase in pig brain at pH of 8.5 and 25 degree C.
The target of series [5] is 4-aminobutyrate aminotransferase, mitochondrial (Sus scrofa) (UniProt P80147). The series can be described thus: Compound was tested for inactivation of Gamma-amino-N-butyrate transaminase in pig brain at pH of 8.5 and 25 degree C.
For series [6], the target named is T1, 4-aminobutyrate aminotransferase, mitochondrial. In words: Compound was tested for inhibitory constant of Gamma-amino-N-butyrate transaminase in pig brain at pH of 6.5.

The structures appear in SMILES notation.

T1 sequence (P80147 whole entry): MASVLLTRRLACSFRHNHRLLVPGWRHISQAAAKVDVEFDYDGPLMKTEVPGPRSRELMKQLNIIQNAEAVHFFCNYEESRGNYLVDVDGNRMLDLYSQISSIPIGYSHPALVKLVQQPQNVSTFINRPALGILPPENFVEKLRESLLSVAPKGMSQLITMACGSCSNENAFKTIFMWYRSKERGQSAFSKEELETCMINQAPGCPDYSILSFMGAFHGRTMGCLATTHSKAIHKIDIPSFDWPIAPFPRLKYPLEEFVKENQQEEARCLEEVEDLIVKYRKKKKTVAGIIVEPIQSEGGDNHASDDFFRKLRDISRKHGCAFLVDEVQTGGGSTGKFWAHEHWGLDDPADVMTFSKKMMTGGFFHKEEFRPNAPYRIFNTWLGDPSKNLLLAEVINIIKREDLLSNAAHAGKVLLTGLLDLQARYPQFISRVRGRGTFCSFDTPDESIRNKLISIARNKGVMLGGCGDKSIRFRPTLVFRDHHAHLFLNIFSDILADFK
Sequence of 4-aminobutyrate aminotransferase, mitochondrial (Sus scrofa) (P80147 whole entry): as above

As usually defined, the Km is the concentration of substrate that gives half-maximal velocity. By Vmax is commonly meant the rate approached at saturating substrate. As to `NCCCC(=O)O` [GAMMA-AMINOBUTYRIC ACID], the Km in series [1] amounted to 1100 µM. Further, the Vmax in series [2] was found to be 0.14 µM/min/mg.
For `NC/C=C/C(=O)O` [t-4-AMINOCROTONIC ACID (TACA)], the Michaelis constant (Km) in series [1] amounted to 1300 µM. The Vmax in series [2] stood at 0.35 µM/min/mg.
In general, Ki refers to a measure of affinity in units of concentration, obtained from inhibition or displacement. Low values mean higher affinity, high ones lower affinity. Take `NC(CF)CCC(=O)O` (stereo not given): the K inact in series [3] is 0.31 min⁻¹; in series [5] it was 0.5 min⁻¹. The Ki in series [4] worked out at 395 µM; in series [6], 105000 µM.
The compound `NC(/C=C/C(=O)O)CF` (stereo not given) displayed a K inact in series [3] of 0.061 min⁻¹. Besides, the Ki in series [6] turned out to be 2000 µM.
